Test results from patent US20250054582A1, “METHOD OF IDENTIFYING A SOLVENT FOR A MATRIKINE” (THE BOOTS COMPANY PLC, priority 2021, published 2025).
Peptide text beside a SMILES is read from it.

Assays:
[1] = Qualitative solubility ranking of matrikines in reference solvents; format: physicochemical
Procedure: (§1) The HSP sphere of seven different matrikines was determined by using a range of reference solvents (solvents with known HSP spheres) to dissolve the matrikines. The reference solvents were then ranked based on their ability to dissolve the matrikines. A software package called Hansen Solubility Parameters in Practice (HSPiP) was then used to determine the HSPs of each of the matrikines.
In general, a set of around 20 standard reference solvents was used to carry out preliminary investigations in solubility tests. Following this, additional/fine-tuning (FT) solvents were selected and used to are used to optimise the reliability and definition of the solubility parameters of the matrikines.
All samples were prepared under standard conditions, within an air-conditioned laboratory environment, at 20° C. and a standard pressure.
Usually, samples are prepared on the Formax High-throughput Formulation System, manufactured by Chemspeed. However due to the small sample size, the samples of this project were prepared manually using a single channel pipette for liquids and an analytical balance for solids.
Qualitative evaluation of the solubility of the matrikines within a range of different reference solvents was used. Samples were placed into six categories, according to the relative extent to which the matrikine dissolved in the solvent.
Between these two extremes sit the other four ranking-categories, whose typical descriptions can be found in table 1 below.

[2] = HSPiP analysis: Hansen Solubility Sphere of the matrikine from solubility scores; format: physicochemical; set-up: δD / δP: unit not given here; conditions: for δD / δH / δP: Hansen Solubility Parameter of the peptide; for δD / δH / δP / R (Size of HSP Sphere): overall results summary; for δD value / δH value: in words, HSPiP fit of solubility scores; for radius: radius of the HSP sphere
Procedure: as §1
The use of qualitative rankings of solubility phenomena makes it possible to define a spheroidal cluster in which the most compatible samples are contained.
The scores from 1 to 6 were entered into the HSPiP data form and then the software analyses the data to produce a Hansen diagram of the solubility sphere, alongside details of the solubility parameters and the goodness of the fit of the data to the sphere, in text format.

[3] = Franz cell skin explant penetration with 3D OrbiSIMS analysis; format: in vitro ADME, human
Procedure: For ex vivo analysis, full thickness human skin tissue was removed during cosmetic surgery from Caucasian female donors (aged 35-70). The explant was frozen immediately post-surgery, shipped and stored at −20° C. prior to use.
The tissue was then defrosted, cut and mounted, dermal side down, in a Franz-type static diffusion cell set-up (Franz, 1975), with an exposed surface area of 1.1 cm^2. Infinite doses of the cosmetic formulations were applied to the donor chamber, with the explant exposed to the formulations for 1 hour in a water bath set to 36.5° C. Sink conditions were maintained throughout the experiments.
After 1 hour, the Franz cell was dismantled, excess formulation was removed with a dry sponge and the skin explant was wiped with a sponge soaked in Teepol Solution (3% v/v). Next, the explant was dehydrated under vacuum at room temperature for 24 hours before 3D OrbiSIMS analysis […]
A 20 KeV Ar3000+ analysis beam with a diameter of 20 μm was used as the primary ion source. Samples were analysed at ambient temperature across a 400×400 μm area in positive polarity with sawtooth raster mode and a total crater size of 486×486 μm. […] Mass spectra were recorded at a resolution of 240,000 at m/z 200 in the mass range of 75 to 1,125 m/z. […]

[4] = blend Glycerol Carbonate:Dimethyl Formamide:1-Propanol 55:25:20%

Structure (SMILES)	dissolution (in words) ([1]; blend Propylene Carbonate:Propylene Glycol 65:35%)	dissolution (in words) ([1]; blend Propylene Glycol Monomethyl Ether:Propylene Carbonate 55:45%)	greatest contribution to the cohesive energy density [2]	δD [2]	δH [2]	δP [2]	δD value [2]	δH value [2]	R (Size of HSP Sphere) [2]	radius [2]	solubility over the reference solvents tested (in words) [1]	dissolution (in words) ([1]; blend Benzyl Alcohol:2-Propanol 80:20%)	dissolution (in words) [1, 4]	dissolution (in words) ([1]; solvent N-Methyl Formamide)	penetration into the skin tissues ([3]; formulation containing methyl gluceth-20 compared to glycerin only, 1 hour)	Pal-GHK peptide ion intensity in skin explant ([3]; formulation with glycerin+methyl gluceth-20 versus glycerin only, 1 hour in Franz cell, 3D OrbiSIMS)	dissolution (in words) ([1]; solvent 2-PhenoxyEthanol)
CCCCCCCCCCCCCCCC(=O)NCC(=O)N1CCC[C@H]1C(=O)N[C@@H](CCCCN)C(=O)NCC(=O)O [Pal-GPKG] (HELM PEPTIDE1{[CCCCCCCCCCCCCCCC(=O)[*:2]].G.P.K.G}$$$$V2.0)	did not dissolve	did not dissolve	Dispersion forces	17.82	17.73	10.55	moderate	moderate	8.3 MPa^0.5	8.3 units							
CCCCCCCCCCCCCCCC(=O)N[C@@H](CCC(=O)O)C(=O)N[C@@H](CCCCN)C(=O)NCC(=O)N[C@@H](CC(=O)O)C(=O)O [Pal-EKGD] (HELM PEPTIDE1{[CCCCCCCCCCCCCCCC(=O)[*:2]].E.K.G.D}$$$$V2.0)			Dispersion forces	17.31	17.26	13.92	moderate	moderate	10.3 MPa^0.5	10.3 units							
CCCCCCCCCCCCCCCC(=O)NCC(=O)N[C@@H](Cc1c[nH]cn1)C(=O)N[C@@H](CCCCN)C(=O)O [Pal-GHK, N-Palmitoyl-Gly-His-Lys] (HELM PEPTIDE1{[CCCCCCCCCCCCCCCC(=O)[*:2]].G.H.K}$$$$V2.0)			Dispersion forces	17.83	11.22	6.57	moderate	low	3.5 MPa^0.5	3.5 units	No samples showed complete dissolution				penetrated quicker	more peptide ion present	

Second part, led by results:

dissolution (in words) ([1]; blend Propylene Carbonate:Propylene Glycol 65:35%)	dissolution (in words) ([1]; blend Propylene Glycol Monomethyl Ether:Propylene Carbonate 55:45%)	greatest contribution to the cohesive energy density [2]	δD [2]	δH [2]	δP [2]	δD value [2]	δH value [2]	R (Size of HSP Sphere) [2]	radius [2]	solubility over the reference solvents tested (in words) [1]	dissolution (in words) ([1]; blend Benzyl Alcohol:2-Propanol 80:20%)	dissolution (in words) [1, 4]	dissolution (in words) ([1]; solvent N-Methyl Formamide)	penetration into the skin tissues ([3]; formulation containing methyl gluceth-20 compared to glycerin only, 1 hour)	Pal-GHK peptide ion intensity in skin explant ([3]; formulation with glycerin+methyl gluceth-20 versus glycerin only, 1 hour in Franz cell, 3D OrbiSIMS)	Structure (SMILES)	dissolution (in words) ([1]; solvent 2-PhenoxyEthanol)
		Dispersion forces	18.84	14.82	12.04	high	low	6.8 MPa^0.5	6.8 units	very limited solubility						CCCCCCCCCCCCCCCC(=O)N[C@@H](CC(C)C)C(=O)N[C@@H](CO)C(=O)N[C@H](C(=O)N[C@@H](CC(=O)O)C(=O)O)C(C)C [Pal-LSVD] (HELM PEPTIDE1{[CCCCCCCCCCCCCCCC(=O)[*:2]].L.S.V.D}$$$$V2.0)	
											did not dissolve	did not dissolve	complete dissolution			CCCCCCCCCCCCCCCC(=O)NCC(=O)N[C@@H](CCC(N)=O)C(=O)N1CCC[C@H]1C(=O)N[C@@H](CCCNC(=N)N)C(=O)O [Pal-GQPR, N-palmitoyl-Gly-Gln-Pro-Arg] (HELM PEPTIDE1{[CCCCCCCCCCCCCCCC(=O)[*:2]].G.Q.P.R}$$$$V2.0)	most interaction with the product without complete dissolution
		Dispersion forces	17.61	10.95	10.66	moderate	low	6 MPa^0.5	6 units			didn't dissolve				CCCCCCCCCCCCCCCC(=O)N[C@@H](CCC(N)=O)C(=O)N[C@H](C(=O)N[C@@H](C)C(=O)N[C@H](C(=O)O)C(C)C)[C@@H](C)O [Pal-QTAV] (HELM PEPTIDE1{[CCCCCCCCCCCCCCCC(=O)[*:2]].Q.T.A.V}$$$$V2.0)	
